Measurements taken from US4940714A, “2-substituted carbonylimidazo[4,5-c]quinolines” (Shionogi & Co., Ltd., priority 1988, dated 1990).

Legend:
[1] = system: Pentylenetetrazole-Induced Convulsion; assay: Potentiation of Pentylenetetrazole-Induced Convulsion (inverse agonist activity); type: in vivo; conditions: Mus musculus; intravenous injection; pentylenetetrazole 90 mg/kg subcutaneous; 2-hour observation; male mice; probit method; read-out: ED50 (dose required to produce tonic convulsion and death in 50% of the animals)
Protocol: Potentiation of Pentylenetetrazole-Induced Convulsion
(§1) Inverse agonist activity was evaluated in this Experiment. Pentylenetetrazole was subscutaneously administered male mice (a group of 8-16 male mice was employed in each test) at a dose of 90 mg/kg immediately after intravenous injection of the test compound. The dose (ED50) required to produce tonic convulsion and death in 50% of the aminals during subsequent 2-hour observation period was calculated by the probit method.

[2] = system: Pentylenetetrazole-Induced Convulsion; assay: Antagonism of Pentylenetetrazole-Induced Convulsion (agonistic activity); type: in vivo; conditions: Mus musculus; intravenous injection; pentylenetetrazole 125 mg/kg subcutaneous; 2-hour observation; male mice; probit method; read-out: ED50 (dose required to prevent tonic convulsion and death in 50% of the animals)
Protocol: Anatagonism of Pentylenetetrazole-Induced Convulsion
as §1, with “Agonistic” for “Inverse agonist”, “125” for “90”, “prevent” for “produce”, “animals” for “aminals”

Benzodiazepine Receptor = assay: Test on Binding to Benzodiazepine Receptor (inhibition of specific binding of tritium-labeled diazepam); design: species or system male Wistar rats (cerebral cortex); conditions: 2 nM tritium-labeled diazepam, 0° C., 60 minutes, rat cerebral cortex receptor preparation
Protocol: Test on Binding to Benzodiazepine Receptor
This test was carried out modifying partially a method of Mohler & Okada, Science, 198, 849-851 (1977). Receptor preparation was provided from the cerebral cortex of male Wistar rats (11-13 weeks age). Inhibitory action of the test compound on the specific binding of tritium-labeled diazepam to the receptor was evaluated as follows: 2 nM tritium-labeled diazepam and an aqueous solution of the test compound in 5 or 6 different concentrations were incubated with the receptor preparation at 0° C. for 60 minutes. The 50% inhibitory concentration (IC50) was measured by the concentration-response curve. In addition, the inhibitory constant (Ki) of the test compound was calculated by dissociation constant (Kd) and concentration (L) of the tritium-labeled diazepam.

learning and memory [3] = conditions: M. Sarter et al., TINS 11, 13 (1988); cited from earlier work
learning and memory [4] = conditions: M. Sarter et al., TINS 11, 13 (1988); cited from earlier work; remark: listed apart in the source

SMILES | Ki (Benzodiazepine Receptor) [nM] | further results
CCNC(=O)c1nc2cnc3ccccc3c2[nH]1 [Ic-67] |  | ED50 [1]: 0.35 mg/kg
O=C(c1ccccc1)c1nc2cnc3ccccc3c2[nH]1 [Id-2] |  | ED50 [2]: 1.06 mg/kg
CSc1ccc(C(=O)c2nc3cnc4ccccc4c3[nH]2)cc1 [Ic-45] | 3.2 | ED50 [2]: 0.88 mg/kg
C/C=C/C(=O)c1nc2cnc3ccccc3c2[nH]1 [Ic-27] | 13.1 | ED50 [2]: 2.47 mg/kg
CCC(C)C(=O)c1nc2cnc3ccccc3c2[nH]1 (stereo not shown) [Ic-18] | 3.6 | 
COC(=O)c1cc2c(cn1)[nH]c1ccccc12 [methyl β-carbonline-3-carboxylate] |  | performance in several animal models of learning and memory (learning and memory [3]): enhances the performance
O=C(c1ccc(Cl)cc1)c1nc2cnc3ccccc3c2[nH]1 [Ic-41] | 8.33 | 
CCOC(=O)c1nc2cnc3ccccc3c2[nH]1 [Ic-64, 2-Ethoxycarbonyl-1H-imidazo[4,5-c]quinoline] |  | ED50 [1]: 0.31 mg/kg
O=C(c1cccc(F)c1)c1nc2cnc3ccccc3c2[nH]1 [Ic-38] |  | ED50 [2]: 1.12 mg/kg
CSCCC(=O)c1nc2cnc3ccccc3c2[nH]1 [Ic-31] | 1.5 | 
Cc1cc(C(=O)c2nc3cnc4ccccc4c3[nH]2)no1 [Ic-60] | 0.373 | ED50 [1]: 0.71 mg/kg
CCCCCCC(=O)c1nc2cnc3ccccc3c2[nH]1 [Ic-9] | 6.11 | ED50 [2]: 3.21 mg/kg
O=C(c1nc2cnc3ccc(F)cc3c2[nH]1)C1CC1 [Ic-21] | 0.5 | 
O=C(c1nc2cnc3ccccc3c2[nH]1)C1CC1 [Ic-1, 2-Cyclopropylcarbonyl-1H-imidazo[4,5-c]quinoline] | 0.357 | 
CCC(=O)c1nc2cnc3ccccc3c2[nH]1 [Ic-4] | 0.409 | 
O=C(c1cccnc1)c1nc2cnc3ccccc3c2[nH]1 [Ic-49] | 1.8 | 
CC(C)C(=O)c1nc2cnc3ccccc3c2[nH]1 [Ic-14] | 1.24 | ED50 [1]: 0.2 mg/kg
O=C(c1nc2cnc3ccccc3c2[nH]1)c1cccs1 [Ic-50] | 0.819 | 
CN1C(=O)CN=C(c2ccccc2)c2cc(Cl)ccc21 [diazepam] |  | performance (learning and memory) in humans (learning and memory [4]): impairs such performance
COc1ccc2c(c1)ncc1nc(C(=O)C3CC3)[nH]c12 [Ic-22] | 1.9 | ED50 [1]: 0.15 mg/kg
CCCC(=O)c1nc2cnc3ccccc3c2[nH]1 [Ic-6] | 0.432 | ED50 [1]: 1 mg/kg
O=C(c1nc2cnc3ccccc3c2[nH]1)c1ccco1 [Ic-56] | 1.07 | 
O=C(c1nc2cnc3ccccc3c2[nH]1)c1ccc(Cl)s1 [Ic-36, 2-[(5-Chlorothiophen-2-yl)carbonyl]-1H-imidazo[4,5-c]quinoline] |  | ED50 [2]: 0.46 mg/kg
O=C(c1nc2cnc3ccccc3c2[nH]1)c1ccccc1F [Ic-37] | 2.21 | 
